In patent publication US10351559B2, “Maleate salts of a B-RAF kinase inhibitor, crystalline forms, methods of preparation, and uses therefore” (BeiGene, Ltd., priority 2015, dated 2019):
Where a name gives a salt, the structure may show the parent alone.

Key:
[1] = tested on: P450 enzymes in rat liver; assay: P450 enzyme induction; assay type: in vitro ADME
[2] = tested on: ERK1/2 phosphorylation in A375 xenografts; assay: PD study, p-ERK1/2 in tumor tissue (AlphaScreen SureFire); assay type: in vivo; conditions: A375 xenografts in mice, oral administration
Experimental: (§1) Human cancer cells were inoculated subcutaneously in the right axilla region of BALB/C nude mice to generate tumor xenografts. On the day of implantation, the cell culture medium was replaced with fresh medium. Three hours later, the media was removed and the cells were collected and re-suspended in cold (4° C.) PBS prior to inoculation. The right axilla region of each mouse was cleaned with 70% ethanol prior to cell inoculation. Each animal was injected subcutaneously with desired cells in 200 μl of cell suspension in the right front flank via a 26-gauge needle. After implantation tumor volumes were measured twice weekly in two dimensions using a calliper. Tumor volume was calculated using the formula: V=0.5×(a×b^2) where a and b are the long and short diameters of the tumor, respectively.
For PD study, when the average tumor size reaches 140-900 mm^3, animals were assigned into desired number of groups with 4 mice per group using a stratified randomization procedure. The groups consisted of a control group (no drug treatment), and different dose levels of Crystalline Form A* of Compound 1 Sesqui-Maleate treatment groups (ranged from 1-20 mg/kg). All doses were based on free-base weight. Drugs were administered by oral gavage once (qd) or twice (bid) daily. […] Body weight was assessed immediately before dosing and the volume dosed was adjusted accordingly. […]

[3] = tested on: human Calu-6 lung adenocarcinoma (K-RAS mutation) tumors; assay: xenograft efficacy study, combination; assay type: in vivo, BALB/C nude mice; conditions: Calu-6 tumors
Experimental: as §1
For in vivo efficacy studies, when the average tumor size reaches 100˜200 mm^3, animals were assigned into desired number of groups with 6-10 mice per group using a stratified randomization procedure. […] Body weight was assessed immediately before dosing and the volume dosed was adjusted accordingly. Individual body weights and tumor volumes were determined twice weekly, with mice being monitored daily for clinical signs of toxicity for the duration of the study. […] All group data was analyzed using the t test. […]
Tumor growth inhibition (TGI) was calculated using the following formula: […]

[4] = short-term stability study (1 week, 60° C. and 40° C./75% RH); assay type: physicochemical; conditions: for TRS %: sesqui-maleate salt
Experimental: Weighed about 2 mg (For XRPD: 10 mg) of each of the above salts in a 40 mL glass vial, separately. The free base form was used as control. The closed samples were capped and sealed with parafilm, while the opened samples were covered by aluminum foil with pinhole. All the samples were stored in stability chamber or dry oven at the corresponding conditions (60° C. and 40° C./75% RH) for 1 week.

A375 cells = assay: CellTiter-Glo luminescent cell viability assay; assay type: cell-based; conditions: Homo sapiens, A-375, 72 h; A375, BRAF V600E, 3-day exposure, N=2; read-out: Compound 1 EC50 (mean ± SD)
Experimental: (§2) A375, Sk-Mel-28, HT29, Colo205, A431, and HCC827 cell lines were purchased from American Type Culture Collection. All the cell lines used in the cellular assays were cultured in the designated medium supplemented with 10% fetal bovine serum (FBS, Thermo Scientific), 100 units/mL penicillin (Gibco), 0.1 mg/mL streptomycin (Gibco) and in a humidified 37° C. environment with 5% CO2. Cell lines were reinstated from frozen stocks laid down within three passages from the original cells purchased and passaged no more than 30 times.
(§3) The growth-inhibitory activity of compounds in a panel of melanoma, colon, breast and lung cancer cells was determined using CellTiter-Glo luminescent cell viability assay (Promega). The number of cells seeded per well of a 96-well plate was optimized for each cell line to ensure logarithmic growth over the 3 days treatment period. Cells were left to attach for 16 hours and then treated with a 10-point dilution series in duplicate. Following a 3-day exposure to the compound, a volume of CellTiter-Glo reagent equal to the volume of cell culture medium present in each well was added. Mixture was placed on an orbital shaker for 2 minutes to allow cell lysing, followed by 10 minutes incubation at room temperature to allow development and stabilization of luminescent signal. Luminescent signal was measured using PHERAstar FS reader (BMG Labtech). EC50 values for cell viability were determined with GraphPad Prism software.

Sk-Mel-28 cells = assay: CellTiter-Glo luminescent cell viability assay; assay type: cell-based; conditions: Homo sapiens, 72 h; Sk-Mel-28, BRAF V600E, 3-day exposure, N=2; read-out: Compound 1 EC50 (mean ± SD)
Experimental: as §2, §3

Colo-205 cells = assay: CellTiter-Glo luminescent cell viability assay; assay type: cell-based; conditions: Homo sapiens, 72 h; Colo-205, BRAF V600E, 3-day exposure, N=2; read-out: Compound 1 EC50 (mean ± SD)
Experimental: as §2, §3

HT-29 cells = assay: CellTiter-Glo luminescent cell viability assay; assay type: cell-based; conditions: Homo sapiens, 72 h; HT-29, BRAF V600E, 3-day exposure, N=2; read-out: Compound 1 EC50 (mean ± SD)
Experimental: as §2, §3

With O=C1CCc2c(Oc3ccc4c(c3)[C@@H]3[C@H](O4)[C@H]3c3nc4ccc(C(F)(F)F)cc4[nH]3)ccnc2N1 [5-(((1R,1aS,6bR)-1-(6-(trifluoromethyl)-1H-benzo[d]imidazol-2-yl)-1a,6b-dihydro-1H-cyclopropa[b]benzofuran-5-yl)oxy)-3,4-dihydro-1,8-naphthyridin-2(1H)-one sesqui-maleate salt] as the compound, how does the “induction effect on P450 enzymes” value [1] read?
Its value is “No significant induction effect”.

What about the “inhibition of ERK1/2 phosphorylation in tumor” value [2] of the same compound?
Its value is “time-dependent and dose-dependent inhibition”.

What about the “antitumor activity in combination” value ([3]; combined with docetaxel) of the same compound?
The value was “remarkable antitumor activity”.

What about the “antitumor activity in combination” value ([3]; combined with the MEK inhibitor selumetinib (AZD6244)) of the same compound?
The value was “remarkable antitumor activity”.

And the TRS % ([4]; 0 day)?
The TRS % was 0.08%.

And the TRS % ([4]; 40° C./75% RH, 1 week)?
The TRS % was 0.10%.

And the TRS % ([4]; 60° C., 1 week)?
The TRS % was 0.17%.

What about the “chemical degradation” value ([4]; after one week at 60° C. and 40° C./75% RH) of the same compound?
Its value is “did not show degradations”.

And the “appearance by visual observation” value ([4]; both conditions after 1 week)?
Its value is “no change”.

And the EC50 (A375 cells)?
Its EC50 is 137 ± 0.5 nM.

And the EC50 (Sk-Mel-28 cells)?
The EC50 was 251 ± 54 nM.

What about the EC50 (Colo-205 cells) of the same compound?
Its EC50 is 147 ± 0.6 nM.

What about the EC50 (HT-29 cells) of the same compound?
The EC50 was 138 ± 13 nM.
